# In ChEMBL document CHEMBL3994566 (Medchemcomm, 2016):
# pKd: −log10 of the molar value.
# What was measured:
# CCR5 = test: Selectivity index, ratio of CC50 for human TZM-bl cells to EC50 for CCR5 in human TZM-bl cells infected with CCR5-tropic HIV-1 Bal assessed as inhibition of viral entry; assay type: toxicity, cell-based; conditions: read-out: Ratio CC50/EC50
# [1] = Binding affinity to HIV1 integrase by surface plasma resonance method; parameters: species or system Human immunodeficiency virus
# TZM = test: Cytotoxicity against human TZM-bl cells after 3 days by XTT assay; assay type: cell-based; conditions: 72 h
pKd [1],Structure (SMILES),selectivity ratio (CCR5),Activity (TZM)
–,CC(=O)Oc1ccc(/C=C/C(=O)CCc2ccc(NC(=O)c3ccc(C)cc3)cc2)cc1OC(C)=O,2,–
–,CC(=O)Oc1ccc(CCC(=O)CCc2ccc(NC(=O)c3ccc([N+](=O)[O-])cc3)cc2)cc1OC(C)=O,15,–
–,Cc1ccc(C(=O)Nc2ccc(CCC(=O)/C=C/c3ccc(O)c(O)c3)cc2)cc1,< 1,–
–,Cc1ccc(C(=O)Nc2ccc(CCC(=O)CCc3ccc(O)c(O)c3)cc2)cc1,5,–
–,COc1ccc(C(=O)Nc2ccc(CCC(=O)CCc3ccc(OC(C)=O)c(OC(C)=O)c3)cc2)cc1,21,–
–,CC(=O)Oc1ccc(/C=C/C(=O)CCc2ccc(NC(=O)c3ccc([N+](=O)[O-])cc3)cc2)cc1OC(C)=O,5,–
4.05,O=C(/C=C/c1ccc(O)c(O)c1)CCc1ccc(NC(=O)C2CCCCC2)cc1,< 3,–
–,O=C(CCc1ccc(NC(=O)Cc2cccs2)cc1)CCc1ccc(O)c(O)c1,8,–
3.96,O=C(CCc1ccc(NC(=O)c2ccccc2)cc1)CCc1ccc(O)c(O)c1,26,–
4.21,O=C(/C=C/c1ccc(O)c(O)c1)CCc1ccc(NC(=O)Cc2cccs2)cc1,< 2,–
–,COc1ccc(C(=O)Nc2ccc(CCC(=O)/C=C/c3ccc(OC(C)=O)c(OC(C)=O)c3)cc2)cc1,12,–
–,O=C(/C=C/c1ccc(O)c(O)c1)CCc1ccc(NC(=O)c2ccc([N+](=O)[O-])cc2)cc1,< 1,–
4.09,O=C(CCc1ccc(NC(=O)C2CCCCC2)cc1)CCc1ccc(O)c(O)c1,10,–
–,CC(=O)Oc1ccc(CCC(=O)CCc2ccc(NC(=O)C3CCCCC3)cc2)cc1OC(C)=O,14,–
–,CC(=O)Oc1ccc(CCC(=O)CCc2ccc(NC(=O)c3ccc(C)cc3)cc2)cc1OC(C)=O,9,–
–,CC(=O)Oc1ccc(/C=C/C(=O)CCc2ccc(NC(=O)C3CCCCC3)cc2)cc1OC(C)=O,5,–
–,COc1ccc(C(=O)Nc2ccc(CCC(=O)CCc3ccc(O)c(O)c3)cc2)cc1,< 5,–
5.62,CC(=O)Oc1ccc(CCC(=O)CCc2ccc(NC(=O)c3ccccc3)cc2)cc1OC(C)=O,110,Non-Toxic
3.79,O=C(/C=C/c1ccc(O)c(O)c1)CCc1ccc(NC(=O)c2ccccc2)cc1,< 1,–
–,CC(=O)Oc1ccc(CCC(=O)CCc2ccc(NC(=O)Cc3cccs3)cc2)cc1OC(C)=O,17,–
4.36,COc1ccc(C(=O)Nc2ccc(CCC(=O)/C=C/c3ccc(O)c(O)c3)cc2)cc1,7,–
–,CC(=O)Oc1ccc(/C=C/C(=O)CCc2ccc(NC(=O)c3ccccc3)cc2)cc1OC(C)=O,< 5,–
–,CC(=O)Oc1ccc(/C=C/C(=O)CCc2ccc(NC(=O)Cc3cccs3)cc2)cc1OC(C)=O,< 1,–
–,O=C(CCc1ccc(NC(=O)c2ccc([N+](=O)[O-])cc2)cc1)CCc1ccc(O)c(O)c1,6,–
–,Cc1nnc(C(C)C)n1[C@@H]1C[C@H]2CC[C@@H](C1)N2CC[C@H](NC(=O)C1CCC(F)(F)CC1)c1ccccc1 [MARAVIROC],> 1e+06,–
